# Laboratory results as given in patent US8927532B2, “Therapeutic agent and diagnostic agent for mitochondrial dysfunction brain diseases” (SBI Pharmaceuticals Co., Ltd., priority 2007, dated 2015).
# Test system: middle cerebral artery-occluded model rats
# Test: Fluorescence observation of brain disease site in cerebral infarction model rats
# Type: in vivo, rat
# Conditions: 100 mg/kg i.p., 4 hours after administration
# Method: After 6 hours, 12 hours, 24 hours, and 42 hours from the preparation of middle cerebral artery-occluded model rats, δ-aminolevulinic acid hydrochloride was dissolved in physiological saline and intraperitoneally administered to the individual model rats in an amount of 100 mg/kg-body weight of rat. […] Moreover, it was confirmed that the red light site was in a cerebral infarction state.
smiles,measurement,value
Cl.NCC(=O)CCC(=O)O [δ-aminolevulinic acid hydrochloride],metabolism to protoporphyrin IX in the brain,metabolized and converted into protoporphyrin IX
